Measurements reported in patent publication US20080009418A1, “Selective Inhibitors” (Alchemia LTD., priority 2004, published 2008).

Legend:
Human Melanocortin (MC4) = target: T1, Human Melanocortin (MC4) (Homo sapiens, UniProt P32245); test: Radioligand binding, human melanocortin MC4 membranes, FlashPlate, [125I]-NDP-αMSH; conditions: compound at 10 μM, [125I]-NDP-αMSH
T1 construct: purchased Perkin Elmer Biosignal
Procedure, shortened: (§1)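 Cloned human receptor membranes were coated onto FlashPlate wells and incubated with radioligand and compound (added from a 0.5 mM DMSO daughter plate) for 1 hour at room temperature in the dark. Scintillation counting gave percent inhibition, with DMSO defining total and reference ligand defining non-specific binding.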

Human neurokinin (NK1) = target: T2, Human neurokinin (NK1) (Homo sapiens, UniProt P25103); test: Radioligand binding, human neurokinin NK1 membranes, filtration, [125I]-Substance P; conditions: compound at 10 μM, [125I]-Substance P
T2 construct: purchased Perkin Elmer Biosignal
T2 sequence (P25103 whole entry): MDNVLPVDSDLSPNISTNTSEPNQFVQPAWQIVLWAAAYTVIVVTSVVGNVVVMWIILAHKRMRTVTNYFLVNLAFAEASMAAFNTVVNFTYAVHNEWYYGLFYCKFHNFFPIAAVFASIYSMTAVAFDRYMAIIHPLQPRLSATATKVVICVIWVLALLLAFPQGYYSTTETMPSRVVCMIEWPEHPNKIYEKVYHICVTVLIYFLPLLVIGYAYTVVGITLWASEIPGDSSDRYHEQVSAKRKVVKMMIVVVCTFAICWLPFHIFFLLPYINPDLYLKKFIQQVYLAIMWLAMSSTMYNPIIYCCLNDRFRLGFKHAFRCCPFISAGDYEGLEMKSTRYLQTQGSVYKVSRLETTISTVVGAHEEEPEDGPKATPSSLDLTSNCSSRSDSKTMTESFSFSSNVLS
Procedure, shortened: (§2)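 Filtration binding on cloned human receptor membranes (1 Unit/well), [125I]-Substance P for NK1 and [3H]-Diprenorphine for KOP, 1 h at room temperature. Filters PEI-presoaked, washed with cold 50 mM Tris-HCl pH 7.4, counted by scintillation; percent inhibition calculated, reference ligand defining non-specific binding.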

Human opioid (ORL1) = target: T3, Human opioid (ORL1) (Homo sapiens, UniProt P41146); test: Radioligand binding, human opioid ORL1 membranes, FlashPlate, [125I]-Nociceptin; conditions: compound at 10 μM, [125I]-Nociceptin
T3 construct: purchased Perkin Elmer Biosignal
T3 sequence (P41146 whole entry): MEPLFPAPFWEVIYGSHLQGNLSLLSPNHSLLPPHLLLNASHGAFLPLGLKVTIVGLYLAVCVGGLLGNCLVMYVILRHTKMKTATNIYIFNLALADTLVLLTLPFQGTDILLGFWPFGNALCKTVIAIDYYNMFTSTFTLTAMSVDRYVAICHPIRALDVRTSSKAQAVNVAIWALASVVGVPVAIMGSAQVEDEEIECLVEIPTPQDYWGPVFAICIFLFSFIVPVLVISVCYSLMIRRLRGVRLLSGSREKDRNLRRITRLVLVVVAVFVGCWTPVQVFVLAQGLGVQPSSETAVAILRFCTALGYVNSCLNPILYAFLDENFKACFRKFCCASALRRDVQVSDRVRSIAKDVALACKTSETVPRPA
Procedure, shortened: as §1

Human melanocortin (MC5) = target: T4, Human melanocortin (MC5) (Homo sapiens, UniProt P33032); test: Radioligand binding, human melanocortin MC5 membranes, FlashPlate, [125I]-NDP-αMSH; conditions: compound at 10 μM, [125I]-NDP-αMSH
T4 construct: purchased Perkin Elmer Biosignal
T4 sequence (P33032 whole entry): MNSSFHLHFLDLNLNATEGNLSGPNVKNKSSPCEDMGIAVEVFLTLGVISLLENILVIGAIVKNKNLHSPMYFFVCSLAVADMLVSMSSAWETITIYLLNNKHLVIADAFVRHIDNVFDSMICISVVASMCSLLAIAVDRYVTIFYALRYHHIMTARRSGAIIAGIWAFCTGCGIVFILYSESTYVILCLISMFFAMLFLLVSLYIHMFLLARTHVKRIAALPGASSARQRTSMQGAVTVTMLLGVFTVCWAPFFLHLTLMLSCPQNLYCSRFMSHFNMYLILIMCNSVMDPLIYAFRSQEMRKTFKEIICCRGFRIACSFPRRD
Procedure, shortened: as §1

Mouse urotensin (mUR2) = target: T5, Mouse urotensin (mUR2) (Mus musculus, UniProt Q8VIH9); test: Radioligand binding, mouse urotensin mUR2 membranes, FlashPlate, [125I]-Urotensin II; conditions: compound at 10 μM, [125I]-Urotensin II
T5 construct: purchased Perkin Elmer Biosignal
T5 sequence (Q8VIH9 1-385): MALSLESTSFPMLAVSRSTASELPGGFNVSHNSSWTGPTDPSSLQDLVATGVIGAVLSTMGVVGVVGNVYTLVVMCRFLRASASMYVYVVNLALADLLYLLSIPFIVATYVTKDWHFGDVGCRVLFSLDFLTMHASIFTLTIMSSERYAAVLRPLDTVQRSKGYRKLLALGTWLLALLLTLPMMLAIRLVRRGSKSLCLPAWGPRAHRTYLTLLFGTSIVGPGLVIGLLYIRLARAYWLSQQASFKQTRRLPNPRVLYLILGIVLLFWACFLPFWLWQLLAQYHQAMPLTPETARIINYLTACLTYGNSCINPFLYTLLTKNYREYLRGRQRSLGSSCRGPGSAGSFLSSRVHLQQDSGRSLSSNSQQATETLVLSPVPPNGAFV
Procedure, shortened: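 Cloned mouse urotensin (mUR2) receptor membranes from Perkin Elmer Biosignal were immobilized in FlashPlate microplates using a proprietary coating. Each well got 19.5 μl buffer, then 0.5 μl of DMSO, reference ligand, or compound. Adding 5 μl of [125I]-Urotensin II, diluted to 5× final concentration in binding buffer, started binding. Plates were sealed with TopSeal-A and incubated 1 hour at room temperature in the dark. Wells were counted for 30 seconds each on a TopCount after a 60-second delay, and percentage inhibition was calculated.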

Human Melanocortin (MC3) = target: T6, Human Melanocortin (MC3) (Homo sapiens, UniProt P41968); test: Radioligand binding, human melanocortin MC3 membranes, FlashPlate, [125I]-NDP-αMSH; conditions: compound at 10 μM, [125I]-NDP-αMSH
T6 construct: purchased Perkin Elmer Biosignal
T6 sequence (P41968 whole entry): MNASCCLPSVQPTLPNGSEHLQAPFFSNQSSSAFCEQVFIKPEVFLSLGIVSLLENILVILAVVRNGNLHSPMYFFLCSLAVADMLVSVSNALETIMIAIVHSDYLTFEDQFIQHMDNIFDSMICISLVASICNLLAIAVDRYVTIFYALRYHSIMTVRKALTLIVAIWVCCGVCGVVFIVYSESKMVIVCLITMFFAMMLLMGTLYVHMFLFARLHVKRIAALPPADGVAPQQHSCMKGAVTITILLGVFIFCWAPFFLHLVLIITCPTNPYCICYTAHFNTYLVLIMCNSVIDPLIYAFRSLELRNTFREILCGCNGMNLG
Procedure, shortened: as §1

[1] = target: T7, Human neuropeptide Y (NPY-Y1) (Homo sapiens, UniProt P25929); test: Radioligand binding, human neuropeptide Y NPY-Y1 membranes, FlashPlate, [125I]-PYY; conditions: compound at 10 μM, [125I]-PYY
T7 construct: purchased Perkin Elmer Biosignal
T7 sequence (P25929 1-384): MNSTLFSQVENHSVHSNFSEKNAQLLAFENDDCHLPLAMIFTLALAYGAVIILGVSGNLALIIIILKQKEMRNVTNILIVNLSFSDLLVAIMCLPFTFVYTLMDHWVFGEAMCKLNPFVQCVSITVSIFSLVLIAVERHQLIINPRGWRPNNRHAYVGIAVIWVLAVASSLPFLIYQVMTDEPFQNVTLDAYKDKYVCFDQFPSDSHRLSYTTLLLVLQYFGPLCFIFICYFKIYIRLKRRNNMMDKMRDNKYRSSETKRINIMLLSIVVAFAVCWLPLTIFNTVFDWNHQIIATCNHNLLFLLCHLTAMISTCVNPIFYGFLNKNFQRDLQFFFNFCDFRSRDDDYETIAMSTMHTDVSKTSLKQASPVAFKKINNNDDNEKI
Procedure, shortened: as §1

Human δ-opioid (DOP) = target: T8, Human δ-opioid (DOP) (Homo sapiens, UniProt P41143); test: Radioligand binding, human δ-opioid (DOP) membranes, FlashPlate, [3H]-Bremazocine; conditions: compound at 10 μM, [3H]-Bremazocine
T8 construct: purchased Perkin Elmer Biosignal
T8 sequence (P41143 whole entry): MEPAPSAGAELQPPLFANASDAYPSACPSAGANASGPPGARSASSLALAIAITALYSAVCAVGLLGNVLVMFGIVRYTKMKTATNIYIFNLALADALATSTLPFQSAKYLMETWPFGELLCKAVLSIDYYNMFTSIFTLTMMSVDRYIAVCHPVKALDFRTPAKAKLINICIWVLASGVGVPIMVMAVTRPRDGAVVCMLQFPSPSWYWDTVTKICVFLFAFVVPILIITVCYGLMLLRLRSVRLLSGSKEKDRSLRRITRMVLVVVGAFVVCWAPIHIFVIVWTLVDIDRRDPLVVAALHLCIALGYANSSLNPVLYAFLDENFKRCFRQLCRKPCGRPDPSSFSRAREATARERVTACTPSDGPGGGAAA
Procedure, shortened: as §1

[2] = target: T9, Human melanin-concentrating hormone (MCH1) (Homo sapiens, UniProt Q99705); test: Radioligand binding, human melanin-concentrating hormone MCH1 membranes, FlashPlate, [125I]-S36057; conditions: compound at 10 μM
T9 construct: purchased Perkin Elmer Biosignal
T9 sequence (Q99705 whole entry): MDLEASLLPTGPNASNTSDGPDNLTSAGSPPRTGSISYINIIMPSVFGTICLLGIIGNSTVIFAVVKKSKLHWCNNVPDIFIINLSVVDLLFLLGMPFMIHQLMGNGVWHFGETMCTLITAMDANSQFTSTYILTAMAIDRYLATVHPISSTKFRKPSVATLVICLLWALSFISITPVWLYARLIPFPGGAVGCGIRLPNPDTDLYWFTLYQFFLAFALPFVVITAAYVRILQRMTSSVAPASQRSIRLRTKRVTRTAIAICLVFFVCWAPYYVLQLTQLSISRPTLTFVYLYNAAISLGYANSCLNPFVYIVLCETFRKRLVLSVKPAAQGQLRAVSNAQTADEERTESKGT
Procedure, shortened: as §1

Human κ-Opioid (KOP) = target: T10, Human κ-Opioid (KOP) (Homo sapiens, UniProt P41145); test: Radioligand binding, human κ-opioid (KOP) membranes, filtration, [3H]-Diprenorphine; conditions: compound at 10 μM, [3H]-Diprenorphine
T10 construct: purchased Perkin Elmer Biosignal
T10 sequence (P41145 whole entry): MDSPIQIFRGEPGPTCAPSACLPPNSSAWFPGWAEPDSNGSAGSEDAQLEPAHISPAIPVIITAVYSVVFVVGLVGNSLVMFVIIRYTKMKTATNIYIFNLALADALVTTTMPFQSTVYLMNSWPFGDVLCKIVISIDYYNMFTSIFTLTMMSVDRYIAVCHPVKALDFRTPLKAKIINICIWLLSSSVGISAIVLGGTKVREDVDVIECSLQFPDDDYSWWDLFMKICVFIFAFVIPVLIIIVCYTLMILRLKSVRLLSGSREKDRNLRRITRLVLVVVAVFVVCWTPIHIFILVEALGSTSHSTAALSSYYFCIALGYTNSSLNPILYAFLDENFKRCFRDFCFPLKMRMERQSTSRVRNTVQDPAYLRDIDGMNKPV
Procedure, shortened: as §2

Human μ-opioid (MOP) = target: T11, Human μ-opioid (MOP) (Homo sapiens, UniProt P35372); test: Radioligand binding, human μ-opioid (MOP) membranes, FlashPlate, [3H]-Naloxone; conditions: compound at 10 μM, [3H]-Naloxone
T11 construct: purchased Perkin Elmer Biosignal
T11 sequence (P35372 whole entry): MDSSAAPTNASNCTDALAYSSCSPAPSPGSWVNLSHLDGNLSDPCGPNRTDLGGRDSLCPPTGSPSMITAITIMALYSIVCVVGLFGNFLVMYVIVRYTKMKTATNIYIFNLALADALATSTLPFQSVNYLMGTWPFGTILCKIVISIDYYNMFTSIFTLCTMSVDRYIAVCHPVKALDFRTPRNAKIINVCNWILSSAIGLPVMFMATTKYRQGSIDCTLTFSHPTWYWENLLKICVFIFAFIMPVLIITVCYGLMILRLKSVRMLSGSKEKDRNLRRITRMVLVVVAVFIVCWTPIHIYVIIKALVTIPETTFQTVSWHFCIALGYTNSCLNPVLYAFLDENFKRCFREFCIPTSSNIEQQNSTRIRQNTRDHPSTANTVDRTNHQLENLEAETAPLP
Procedure, shortened: as §1

T1 sequence (P32245 whole entry): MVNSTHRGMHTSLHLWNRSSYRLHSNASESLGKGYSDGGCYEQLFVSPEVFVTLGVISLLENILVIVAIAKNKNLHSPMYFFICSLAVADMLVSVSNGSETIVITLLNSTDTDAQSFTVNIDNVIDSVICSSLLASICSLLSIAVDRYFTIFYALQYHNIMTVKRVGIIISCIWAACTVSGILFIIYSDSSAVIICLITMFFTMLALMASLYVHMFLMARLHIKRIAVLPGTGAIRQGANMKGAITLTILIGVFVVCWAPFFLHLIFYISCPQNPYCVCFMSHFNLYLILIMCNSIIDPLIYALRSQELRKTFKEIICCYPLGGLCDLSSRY

Compound	A4: inhibition of radioligand binding (Human Melanocortin (MC4); FlashPlate)	A8: inhibition of radioligand binding (Human neurokinin (NK1); filtration)	A10: inhibition of radioligand binding (Human opioid (ORL1); FlashPlate)	A5: inhibition of radioligand binding (Human melanocortin (MC5); FlashPlate)	A11: inhibition of radioligand binding (Mouse urotensin (mUR2); FlashPlate)	A3: inhibition of radioligand binding (Human Melanocortin (MC3); FlashPlate)	A9: inhibition of radioligand binding ([1]; FlashPlate)	A1: inhibition of radioligand binding (Human δ-opioid (DOP); FlashPlate)	A6: inhibition of radioligand binding ([2]; [125I]-S36057, FlashPlate)	A2: inhibition of radioligand binding (Human κ-Opioid (KOP); filtration)	A7: inhibition of radioligand binding (Human μ-opioid (MOP); FlashPlate)	further results
NCCCC(=O)NC1C(OCc2ccc3ccccc3c2)OC(COCc2ccc3ccccc3c2)C(O)C1OCc1ccccc1 (single isomer, unassigned) [compound 465]	–	–	–	–	–	–	–	–	–	–	–	A4: inhibition of radioligand binding (Human Melanocortin (MC4); human MC4 membranes, 10 µM): − (“−” indicates less than 50% inhibition at 10 μM); A8: inhibition of radioligand binding (Human neurokinin (NK1); human NK1 membranes): + (“+” indicates greater than 50% inhibition at 10 μM); A10: inhibition of radioligand binding (Human opioid (ORL1); human ORL1 membranes, 10 µM): − (“−” indicates less than 50% inhibition at 10 μM); A5: inhibition of radioligand binding (Human melanocortin (MC5); human MC5 membranes): + (“+” indicates greater than 50% inhibition at 10 μM); A11: inhibition of radioligand binding (Mouse urotensin (mUR2); mouse mUR2 membranes): − (“−” indicates less than 50% inhibition at 10 μM); A3: inhibition of radioligand binding (Human Melanocortin (MC3); human MC3 membranes, 10 µM): − (“−” indicates less than 50% inhibition at 10 μM); A9: inhibition of radioligand binding ([1]; human NPY-Y1 membranes): − (“−” indicates less than 50% inhibition at 10 μM); A1: inhibition of radioligand binding (Human δ-opioid (DOP); human DOP membranes): − (“−” indicates less than 50% inhibition at 10 μM); A6: inhibition of radioligand binding ([2]; [125I]-S36057, human MCH1 membranes, 10 µM): − (“−” indicates less than 50% inhibition at 10 μM); A2: inhibition of radioligand binding (Human κ-Opioid (KOP); human KOP membranes): − (“−” indicates less than 50% inhibition at 10 μM); A7: inhibition of radioligand binding (Human μ-opioid (MOP); human MOP membranes): − (“−” indicates less than 50% inhibition at 10 μM)
COCC1OC(OCc2ccc(Cl)cc2)C(NC(=O)CCCNC(=N)N)C(OCc2ccc(Cl)cc2)C1O (stereo not drawn) [compound 204]	+ (“+” indicates greater than 50% inhibition at 10 μM)	+ (“+” indicates greater than 50% inhibition at 10 μM)	− (“−” indicates less than 50% inhibition at 10 μM)	+ (“+” indicates greater than 50% inhibition at 10 μM)	− (“−” indicates less than 50% inhibition at 10 μM)	+ (“+” indicates greater than 50% inhibition at 10 μM)	− (“−” indicates less than 50% inhibition at 10 μM)	− (“−” indicates less than 50% inhibition at 10 μM)	+ (“+” indicates greater than 50% inhibition at 10 μM)	− (“−” indicates less than 50% inhibition at 10 μM)	− (“−” indicates less than 50% inhibition at 10 μM)	–
COCC1OC(OCCc2ccccc2)C(NC(=O)CCCN)C(OCc2ccccc2)C1O (stereo not drawn) [compound 217]	− (“−” indicates less than 50% inhibition at 10 μM)	+ (“+” indicates greater than 50% inhibition at 10 μM)	− (“−” indicates less than 50% inhibition at 10 μM)	− (“−” indicates less than 50% inhibition at 10 μM)	− (“−” indicates less than 50% inhibition at 10 μM)	− (“−” indicates less than 50% inhibition at 10 μM)	− (“−” indicates less than 50% inhibition at 10 μM)	− (“−” indicates less than 50% inhibition at 10 μM)	− (“−” indicates less than 50% inhibition at 10 μM)	− (“−” indicates less than 50% inhibition at 10 μM)	− (“−” indicates less than 50% inhibition at 10 μM)	–
COCC1OC(OCc2ccc(Cl)cc2)C(NC(=O)CCCNC(=N)N)C(OCc2ccccc2)C1O (stereo not drawn) [compound 198]	− (“−” indicates less than 50% inhibition at 10 μM)	+ (“+” indicates greater than 50% inhibition at 10 μM)	− (“−” indicates less than 50% inhibition at 10 μM)	+ (“+” indicates greater than 50% inhibition at 10 μM)	− (“−” indicates less than 50% inhibition at 10 μM)	− (“−” indicates less than 50% inhibition at 10 μM)	− (“−” indicates less than 50% inhibition at 10 μM)	− (“−” indicates less than 50% inhibition at 10 μM)	− (“−” indicates less than 50% inhibition at 10 μM)	− (“−” indicates less than 50% inhibition at 10 μM)	− (“−” indicates less than 50% inhibition at 10 μM)	–
COCC1OC(OCCc2ccccc2)C(NC(=O)CCN)C(OCc2ccc3ccccc3c2)C1O (stereo not drawn) [compound 227]	− (“−” indicates less than 50% inhibition at 10 μM)	+ (“+” indicates greater than 50% inhibition at 10 μM)	− (“−” indicates less than 50% inhibition at 10 μM)	− (“−” indicates less than 50% inhibition at 10 μM)	− (“−” indicates less than 50% inhibition at 10 μM)	− (“−” indicates less than 50% inhibition at 10 μM)	− (“−” indicates less than 50% inhibition at 10 μM)	− (“−” indicates less than 50% inhibition at 10 μM)	− (“−” indicates less than 50% inhibition at 10 μM)	− (“−” indicates less than 50% inhibition at 10 μM)	− (“−” indicates less than 50% inhibition at 10 μM)	–
CO[C@H]1[C@H](O)[C@@H](COCc2ccc(Cl)cc2)OC(OCc2ccc(Cl)cc2)[C@@H]1NC(=O)CCCN (stereo partly drawn) [compound 107]	–	–	–	–	–	–	–	–	–	–	–	A4 radioligand binding, percentage inhibition (Human Melanocortin (MC4)): + (“+” indicates greater than 50% inhibition at 10 μM); A8 radioligand binding, percentage inhibition (Human neurokinin (NK1)): + (“+” indicates greater than 50% inhibition at 10 μM); A10 radioligand binding, percentage inhibition (Human opioid (ORL1)): − (“−” indicates less than 50% inhibition at 10 μM); A5 radioligand binding, percentage inhibition (Human melanocortin (MC5)): + (“+” indicates greater than 50% inhibition at 10 μM); A11 radioligand binding, percentage inhibition (Mouse urotensin (mUR2)): − (“−” indicates less than 50% inhibition at 10 μM); A3 radioligand binding, percentage inhibition (Human Melanocortin (MC3)): − (“−” indicates less than 50% inhibition at 10 μM); A9 radioligand binding, percentage inhibition [1]: − (“−” indicates less than 50% inhibition at 10 μM); A1 radioligand binding, percentage inhibition (Human δ-opioid (DOP)): − (“−” indicates less than 50% inhibition at 10 μM); A6 radioligand binding, percentage inhibition ([2]; [125I]-S36057): − (“−” indicates less than 50% inhibition at 10 μM); A2 radioligand binding, percentage inhibition (Human κ-Opioid (KOP)): − (“−” indicates less than 50% inhibition at 10 μM); A7 radioligand binding, percentage inhibition (Human μ-opioid (MOP)): − (“−” indicates less than 50% inhibition at 10 μM)
